Results as given in US20190315814A1, “LANTIBIOTIC VARIANTS AND USES THEREOF” (priority 2016, published 2019).
Values after ≈ are worked out from the molar mass of the structure shown. Where two headings read alike, the source gives them in different places. Where a SMILES comes first, the peptide text is derived from it.

Legend:
[1] = tested on: Lactobacillus acidophilus (CCUG 4356)
[2] = simulated gi fluid
[3] = tested on: VRE Enterococcus faecalis; settings: VRE
[4] = tested on: Clostridium scindens (ATCC 35704)
[5] = tested on: Peptostreptococcus anaerobius (ATCC 27337)
[6] = tested on: Eggerthella lenta (ATCC 27337)
in vitro = settings: simulated gastric fluid without enzyme, pH 1.4
Procedure: Assay incubation conditions included […] simulated gastric fluid (SGF, USP 39 Test Solution; 2 g/L NaCl, 7 mL/L glacial HCl, pH 1.4) containing 1.75 mg/mL Pepsin (3200-4500 U/mg) mixed with 7.5 μL of 10 mg/mL variant (or positive control, NH2-Met-Arg-Phe-Ala-OH, MRFA, CAS#67368-29-0) for a final concentration of 300 μg/ml variant in a microfuge tube. Samples were incubated at 37° C. and analyzed using HPLC or LC-MS for loss of substrate. The percent remaining, elimination rate constant (Ke), and in vitro protein half-lives were calculated. A control of SGF without enzyme was also run and analyzed in the same manner for each variant.

[7] = FaSSIF + 1% pancreatin + 3 μg/ml trypsin + 3 μg/ml chymotrypsin half-life

| SMILES | MIC L. acidophilus [1] [µg/mL] | half-life [2, 7] [min] | half-life ([2]; FaSSIF only half-life) [min] | MIC VRE ATCC 700221 (VRE Enterococcus faecium) [µg/mL] | MIC VRE ATCC 51575 [3] [µg/mL] | MIC VRE CCUG 47775 [3] [µg/mL] | MIC C. scindens [4] [µg/mL] | MIC P. anaerobius [5] [µg/mL] | MIC E. lenta [6] [µg/mL] | MIC to H. Pylori without EDTA (Heliobacter pylori) [µg/mL] | MIC to H. Pylori with 0.05M EDTA (Heliobacter pylori) [µg/mL] | half-life at 300 μg/ml (in vitro) [min] | MIC to H. Pylori without EDTA (Heliobacter pylori; without EDTA) [µg/mL] |
| --- | --- | --- | --- | --- | --- | --- | --- | --- | --- | --- | --- | --- | --- |
| C=C1NC(=O)[C@H](Cc2c[nH]c3ccccc23)NC(=O)[C@H](NC(=O)[C@H](CCCCN)NC(=O)[C@H](C)N)CSC[C@@H](C(=O)N[C@H]2C(=O)N3CCC[C@H]3C(=O)NCC(=O)N[C@H](C(=O)N[C@@H](C)C(=O)N[C@@H](C)C(=O)NC(=CC)C(=O)NCC(=O)N[C@@H]3CSC[C@@H]4NC(=O)[C@H](Cc5ccc(O)cc5)NC(=O)[C@@H](CS/C=C\NC4=O)NC(=O)[C@H](CC(N)=O)NC(=O)[C@H](Cc4ccccc4)NC3=O)CS[C@H]2C)NC(=O)[C@H](CC(C)C)NC1=O [F1A R13A] | 8 (≈ 3.8 µM) | 130 | > 720 | 16 (≈ 7.61 µM) | 32 (≈ 15.2 µM) | 32 (≈ 15.2 µM) | 16 (≈ 7.61 µM) | 2 (≈ 0.951 µM) | 4 (≈ 1.9 µM) | >64 | 64 | – | – |
| C=C1NC(=O)[C@H](Cc2c[nH]c3ccccc23)NC(=O)[C@H](NC(=O)[C@H](CCCCN)NC(=O)[C@H](C)N)CSC[C@@H](C(=O)N[C@H]2C(=O)N3CCC[C@H]3C(=O)NCC(=O)N[C@H](C(=O)N[C@@H](C)C(=O)NCC(=O)NC(=CC)C(=O)NCC(=O)N[C@@H]3CSC[C@@H]4NC(=O)[C@H](Cc5ccc(O)cc5)NC(=O)[C@@H](CS/C=C\NC4=O)NC(=O)[C@H](CC(N)=O)NC(=O)[C@H](Cc4ccccc4)NC3=O)CS[C@H]2C)NC(=O)[C@H](CC(C)C)NC1=O [F1A R13G] | 16 (≈ 7.66 µM) | 124 | 299 | 32 (≈ 15.3 µM) | >64 | >64 | 32 (≈ 15.3 µM) | 4 (≈ 1.91 µM) | 16 (≈ 7.66 µM) | >64 | >64 | – | – |
| C=C1NC(=O)[C@H](Cc2c[nH]c3ccccc23)NC(=O)[C@H](NC(=O)[C@H](CCCCN)NC(=O)CN)CSC[C@@H](C(=O)N[C@H]2C(=O)N3CCC[C@H]3C(=O)NCC(=O)N[C@H](C(=O)N[C@@H](C)C(=O)N[C@@H](CC(N)=O)C(=O)NC(=CC)C(=O)NCC(=O)N[C@@H]3CSC[C@@H]4NC(=O)[C@H](Cc5ccc(O)cc5)NC(=O)[C@@H](CS/C=C\NC4=O)NC(=O)[C@H](CC(N)=O)NC(=O)[C@H](Cc4ccccc4)NC3=O)CS[C@H]2C)NC(=O)[C@H](CC(C)C)NC1=O [F1G R13N] | 8 (≈ 3.75 µM) | 225 | > 720 | 32 (≈ 15 µM) | >64 | >64 | 16 (≈ 7.5 µM) | 4 (≈ 1.88 µM) | 16 (≈ 7.5 µM) | >64 | >64 | – | – |
| C=C1NC(=O)[C@H](Cc2c[nH]c3ccccc23)NC(=O)[C@H](NC(=O)[C@H](CCCCN)NC(=O)[C@@H](N)[C@@H](C)CC)CSC[C@@H](C(=O)N[C@H]2C(=O)N3CCC[C@H]3C(=O)NCC(=O)N[C@H](C(=O)N[C@@H](C)C(=O)N[C@@H](CC(N)=O)C(=O)NC(=CC)C(=O)N[C@@H](C)C(=O)N[C@@H]3CSC[C@@H]4NC(=O)[C@H](Cc5ccc(O)cc5)NC(=O)[C@@H](CS/C=C\NC4=O)NC(=O)[C@H](CC(N)=O)NC(=O)[C@H](Cc4ccccc4)NC3=O)CS[C@H]2C)NC(=O)[C@H](CC(C)C)NC1=O [F1I R13N G15A] | 8 (≈ 3.63 µM) | > 720 | > 720 | 32 (≈ 14.5 µM) | 32 (≈ 14.5 µM) | >64 | 16 (≈ 7.26 µM) | 4 (≈ 1.82 µM) | 8 (≈ 3.63 µM) | >64 | 64 | – | – |
| C=C1NC(=O)[C@H](CCSC)NC(=O)[C@H](NC(=O)[C@H](CCCCN)NC(=O)[C@@H](N)[C@@H](C)CC)CSC[C@@H](C(=O)N[C@H]2C(=O)N3CCC[C@H]3C(=O)NCC(=O)N[C@H](C(=O)N[C@@H](C)C(=O)N[C@@H](C)C(=O)NC(=CC)C(=O)NCC(=O)N[C@@H]3CSC[C@@H]4NC(=O)[C@H](Cc5ccc(O)cc5)NC(=O)[C@@H](CS/C=C\NC4=O)NC(=O)[C@H](CC(N)=O)NC(=O)[C@H](Cc4ccccc4)NC3=O)CS[C@H]2C)NC(=O)[C@H](CC(C)C)NC1=O [F1I W4M R13A] | 32 (≈ 15.3 µM) | 349 | > 720 | >64 | >64 | >64 | 32 (≈ 15.3 µM) | 8 (≈ 3.83 µM) | 16 (≈ 7.65 µM) | 64 (≈ 30.6 µM) | 64 | – | – |
| C=C1NC(=O)[C@H](Cc2c[nH]c3ccccc23)NC(=O)[C@H](NC(=O)[C@H](CCCCN)NC(=O)[C@@H](N)CO)CSC[C@@H](C(=O)N[C@H]2C(=O)N3CCC[C@H]3C(=O)NCC(=O)N[C@H](C(=O)N[C@@H](C)C(=O)N[C@@H](CC(N)=O)C(=O)NC(=CC)C(=O)NCC(=O)N[C@@H]3CSC[C@@H]4NC(=O)[C@H](Cc5ccc(O)cc5)NC(=O)[C@@H](CS/C=C\NC4=O)NC(=O)[C@H](CC(N)=O)NC(=O)[C@H](Cc4ccccc4)NC3=O)CS[C@H]2C)NC(=O)[C@H](CC(C)C)NC1=O [F1S R13N] | 16 (≈ 7.4 µM) | > 720 | > 720 | 64 (≈ 29.6 µM) | >64 | >64 | 32 (≈ 14.8 µM) | 8 (≈ 3.7 µM) | 16 (≈ 7.4 µM) | >64 | >64 | – | – |
| C=C1NC(=O)[C@H](Cc2c[nH]c3ccccc23)NC(=O)[C@H](NC(=O)[C@H](CCCCN)NC(=O)[C@@H](N)[C@@H](C)O)CSC[C@@H](C(=O)N[C@H]2C(=O)N3CCC[C@H]3C(=O)NCC(=O)N[C@H](C(=O)N[C@@H](C)C(=O)NCC(=O)NC(=CC)C(=O)NCC(=O)N[C@@H]3CSC[C@@H]4NC(=O)[C@H](Cc5ccc(O)cc5)NC(=O)[C@@H](CS/C=C\NC4=O)NC(=O)[C@H](CC(N)=O)NC(=O)[C@H](Cc4ccccc4)NC3=O)CS[C@H]2C)NC(=O)[C@H](CC(C)C)NC1=O [F1T R13G] | 8 (≈ 3.77 µM) | 114 | > 720 | 32 (≈ 15.1 µM) | 64 (≈ 30.2 µM) | 64 (≈ 30.2 µM) | 64 (≈ 30.2 µM) | 8 (≈ 3.77 µM) | 8 (≈ 3.77 µM) | >64 | >64 | – | – |
| CSCC[C@H](N)C(=O)N[C@@H](CCCNC(=N)N)C(=O)N[C@@H](Cc1ccccc1)C(=O)N[C@@H](C)C(=O)O [Positive Control, NH2-Met-Arg-Phe-Ala-OH, reference compound] (H-MRFA-OH) | – | – | – | – | – | – | – | – | – | – | – | > 1440 | – |
| CN(C)[C@@H]1C(O)=C(C(N)=O)C(=O)[C@@]2(O)C(O)=C3C(=O)c4c(O)cccc4[C@@](C)(O)[C@H]3C[C@@H]12 [Tetracycline, reference compound] | – | – | – | – | – | – | – | – | – | – | 0.25 | – | 0.5 (≈ 1.13 µM) |
